Measurements as given in US4980163A, “Novel bacteriocin compositions for use as enhanced broad range bactericides and methods of preventing and treating microbial infection” (Public Health Research Institute of the City of New York, priority 1989, dated 1990).
Several values for one entry are separate records, joined by “and”; a condition that tells them apart may be missing. Equal entries are not always repeated. Where no end group is shown, it is not given here.

System: Staphylococcus aureus
Experiment: Bactericidal activity in milk, percent bacterial survival (Example 1, Table 1)
Type: cell-based
Details: for % survival 2 hr: initial viable counts 5 × 10^7 cfu/ml
Protocol: All tests in the following examples were performed at 37° C. The efficacy of the enhanced broad range bactericides was determined by assaying bactericidal activity as measured by the percent bacterial survival after treatment with the bactericide. Generally, after incubation of a 10^7 cell per ml suspension of target species with the novel bactericide for specified lengths of time, bacteria were collected by centrifugation for 2 minutes. The bacterial pellet was washed free of the bactericide with a rescue buffer, termed herein Phage buffer (50 mM Tris-HCl buffer pH 7.8, 1 mM MgSO4, 4 mM CaCl2, 0.1M NaCl, and 0.1% gelatin), resuspended and serially diluted into Phage buffer, and 100 μl of the suspended bacteria were spread on nutrient agar plates. Surviving bacteria were determined by scoring colony forming units (CFU) after incubation for 24-48 hours at 37° C. An effective bactericide according to this invention is one which allows less than 0.1% of the initial viable count of the bacteria to survive.
Staphylococcus aureus cells were suspended and incubated in milk at 37° C. for 2 hours with various concentrations of lysostaphin, nisin, or a combination of lysostaphin and nisin in the milk. The bactericidal efficacy of the bactericides was estimated by determining the percent survival of bacteria as described above.

| Substance | % survival 2 hr (Lysostaphin 1.0 μg/ml, Nisin 0, milk, 37° C.) | log reduction in viable cells (Lysostaphin alone 1.0 μg/ml in milk) | % survival 2 hr (Nisin 0.2 μg/ml, Lysostaphin 0, milk, 37° C.) [%] | % survival 2 hr (Nisin 0.5 μg/ml, Lysostaphin 0, milk, 37° C.) [%] | % survival 2 hr (Nisin 1.0 μg/ml, Lysostaphin 0, milk, 37° C.) [%] | % survival 2 hr (Nisin 2.0 μg/ml, Lysostaphin 0, milk, 37° C.) | % survival 2 hr (Nisin 4.0 μg/ml, Lysostaphin 0, milk, 37° C.) [%] | bactericidal activity in milk (in words) (milk, 37° C.) |
| --- | --- | --- | --- | --- | --- | --- | --- | --- |
| Lysostaphin | < 10^-3% | more than a five log reduction |  |  |  |  |  |  |
| Nisin (ITSISLCTPGCKTGALMGCNMKTATCHCSIHVSK; also: lantibiotic nisin-A: lanthionine rings and dehydrated residues, places not given here; UniProt P13068 24-57, looked up) [lanthionine containing peptide bacteriocin produced by Streptococcus lactis] |  |  | 45 | 33 | 9 | 2.5% and 0.5% | 0.5 | little practical bactericidal activity |
